Laboratory results published in patent publication US10251819B2, “Amphiphilic polymer” (LG Chem, Ltd., priority 2015, dated 2019).

Test: Percutaneous absorption test of genistein-loaded amphiphilic polymer solution, Franz diffusion cell
Type: in vitro ADME, porcine
Protocol: The percutaneous absorption of genistein of the amphiphilic polymer solution in which genistein was loaded and which was prepared as above was evaluated using porcine skin (2×2 cm, thickness: 1000 μm) and a Franz diffusion cell (FIG. 2). A phosphate buffered saline (PBS) solution containing 30 wt % of dipropylene glycol (DPG) was used as an aqueous solution (acceptor solution) to maintain a sink condition with respect to genistein. 0.2 g of the amphiphilic polymer solution on which genistein was loaded was loaded in a Franz diffusion cell on which the porcine skin was mounted, and the test was performed at 32° C. similar to a skin temperature for 24 hours. Skin tissue into which genistein was absorbed was pulverized and extracted to analyze the content of genistein absorbed into the skin tissue and the content of genistein absorbed into the acceptor solution through HPLC, and the results are shown in Table 3.

- Skin penetration amount: 0.15 μg/cm^2
- Skin penetration ratio: 0.09%
Substance: polycaprolactone (B)-polyethylene glycol (A)-polycaprolactone (B) copolymer [Comparative Example 1]
